From US20110294721A1, “ANTIMICROBIAL PEPTIDES” (priority 2008, published 2011) come the findings set out here.

Test [1] relates to Alternaria alternata. In words: MIC in-vitro inhibition assay, antifungal (Example 2). It counts as cell-based. The following applies: complete inhibition of spore germination/mycelial growth; Table 1. As for the experimental part:
(§1) In-vitro inhibition assays were performed in sterile flat-bottom 96-well plates (Greiner bio-one, Frickenhausen). Antimicrobial peptides were dissolved in 0.01% acetic acid containing 0.2% BSA (500 μg/ml), filter sterilized and stored at −20° C. For inhibition assays dilutions of peptides ranging from 5 to 200 μg/ml were prepared and 10 μl (antibacterial assay) or 20 μl (antifungal assay) of each concentration was loaded per well.
(§2) Spores of fungi were collected by water washes of sporulating cultures grown on 2% malt extract agar and spore concentration was determined by microscopy. The concentration of the spores was adjusted to 1.5-2×10^3 spores/ml in 2% malt extract medium and 80 μl of fungal spores were added per well. The final peptide concentrations used in the fungal inhibition assays were 0, 2, 4, 10, 20, 40, and 100 μg/ml. After overnight incubation at room temperature the plate were put on a rotary shaker (300 rpm) for further two days to ensure consistantly growth. Antifungal effects of the peptides were determined by a microplate reader (Altemaria, Fusarium) at OD590 nm or by visual screening of the plates (Bottytis, Cladosporium).
(§3) The lowest peptide concentration leading to complete inhibition of bacterial growth or spore germination/mycelial growth (minimal inhibition concentration, MIC) was determined for each organism-peptide combination. For each peptide concentration two identical inhibition assays were performed.

Test [2] relates to Botrytis cinerea. Described as above. As to conditions: complete inhibition of spore germination/mycelial growth; Table 1. In kind it is cell-based. As for the experimental part: as §1, §2, §3
The test system of test [3] is Cladosporium herbarum. Described as above. It counts as cell-based. As to conditions: complete inhibition of spore germination/mycelial growth; Table 1. As for the experimental part:
as §1, §2, §3

For test [4], the system named is Enterobacter cloacae. It counts as cell-based. As for the experimental part:
(§4) In-vitro inhibition assays were performed in sterile ELISA-plates (Greiner bio-one, Frickenhausen or Nunc, Wiesbaden). Antimicrobial peptides were dissolved in 0.01% acetic acid containing 0.2% BSA and stored at −20° C. […] After incubation for one day at 27° C. growth inhibition of the bacteria was analyzed by a ELISA microplate reader.

For test [5], the system named is Klebsiella pneumoniae. In kind it is cell-based. As for the experimental part: as §4
For test [6], the system named is Klebsiiella oxytoca. In kind it is cell-based. As for the experimental part:
as §4

Test [7] relates to Pseudomonas aeruginosa. In kind it is cell-based. As for the experimental part: as §4
Test [8] has as its system Staphylococcus epidermidis. It counts as cell-based. As for the experimental part: as §4
Test [9] deals with Yersinia enterocolitica. It counts as cell-based. As for the experimental part:
as §4

Test [10] relates to Escherichia coli (DH5α). In kind it is cell-based. As for the experimental part: (§5) In-vitro inhibition assays were performed in sterile ELISA-plates (Greiner bio-one, Frickenhausen or Nunc, Wiesbaden). Antimicrobial peptides were dissolved in 0.01% acetic acid containing 0.2% BSA and stored at −20° C. For inhibition assays dilutions of peptides ranging from 5 to 500 μg/ml were prepared and 10 μl of each concentration was loaded per well.
(§6) The optical density of bacteria overnight cultures were adjusted to 0.08-0.1 and diluted in BHI-medium (1:1000). 90 μl of this suspension containing about 10^5-10^6 CFU/ml of tested bacteria were added to each well resulting in final peptide concentrations of 0, 0.5, 1, 2, 5, 10, 20, and 50 μg/ml. After incubation for one day at 27° C. growth inhibition of the bacteria was analyzed by a ELISA microplate reader. The lowest concentration, in which there is no observable growth (>90% inhibition) is referred to as minimal inhibitory concentration (MIC).
(§7) In-vitro inhibition assays were performed as described in Example 5 above.

For test [11], the system named is Staphylococcus aureus. It counts as cell-based. As for the experimental part: as §5, §6, §7
The test system of test [12] is Pectobacterium carotovorum sub. carotovorum. As to conditions: complete inhibition of bacterial growth; overnight 25° C.; Table 1.
Test [13] relates to Xanthomonas vesicatoria. As to conditions: complete inhibition of bacterial growth; overnight 25° C.; Table 1.
Test [14] relates to Pseudomonas syringae pv. tomato. The following applies: complete inhibition of bacterial growth; overnight 25° C.; Table 1.
In test [15] the test system is Pseudomonas syringae pv. syringae. The following applies: complete inhibition of bacterial growth; overnight 25° C.; Table 1.
Test [16] has as its system Pseudomonas corrugata. The following applies: complete inhibition of bacterial growth; overnight 25° C.; Table 1.

No end group written: not given here.

For KRRLAAFRAFRGALKSVLKK-NH2 [SP16], the “Minimal inhibition concentration (MIC)” value was more than 100 µg/mL in test [1]; more than 100 µg/mL in test [2]; 20 µg/mL in test [3]; more than 40 µg/mL in [12]; 5 µg/mL in test [13]; 5 µg/mL in [14]. The results for the “Minimal inhibition concentration (MIC)” value in [15] and in test [16] were 5 µg/mL and 2.5 µg/mL, respectively. In addition, the “Activity against human pathogens (MIC)” value in test [4] is more than 50 µg/mL; in test [5] it was more than 50 µg/mL; in [6], more than 50 µg/mL; in [7] it was more than 50 µg/mL; in [8] it was 20 µg/mL; in [9] it was more than 50 µg/mL. For the same substance, the “Activity against human pathogens (MIC)” value in test [10] was 10 µg/mL; in test [11], more than 50 µg/mL.
